Assay results as given in patent US10722442B2, “Skin brightening composition comprising novel ginsenoside” (AMOREPACIFIC CORPORATION, priority 2018, dated 2020).
Blank lines part the entries; values can stand above or below the compound they belong to.

Key:
[1] = target: Mushroom-derived tyrosinase; assay: Inhibitory effect of tyrosinase activity; assay type: biochemical; settings: L-tyrosine substrate, 20 minutes at 37° C., absorbance at 490 nm
Description: In order to compare the skin brightening effects of ginsenosides isolated from the ginseng seed extract, the inhibitory effect of the tyrosinase activity was evaluated as follows. Mushroom-derived tyrosinase and tyrosine were obtained from Sigma Chemical. […] Tyrosinase activity was assessed by measuring the absorbance at 490 nm using a microplate reader (Bio-Rad 3550, Richmond, Calif., U.S.A.) after an enzyme reaction for 20 minutes at 37° C.

Mel-Ab cell line = assay: Melanin production inhibition (Dooley's method); assay type: cell-based, C57BL/6; settings: Mel-Ab cells, after 5 days, absorbance at 400 nm

IC50 (ppm), inhibitory effect of tyrosinase activity [1]: 149 ppm
Compound: OC[C@H]1O[C@@H](Oc2ccc(O)cc2)[C@H](O)[C@@H](O)[C@@H]1O [Arbutin, arbutin]

Compound: CC(C)=CCC[C@](C)(O[C@@H]1O[C@H](CO)[C@@H](O)[C@H](O)[C@H]1O)[C@H]1CC[C@]2(C)[C@@H]1[C@H](O)C[C@@H]1[C@@]3(C)CC[C@H](O)C(C)(C)[C@@H]3[C@@H](O[C@@H]3O[C@H](CO)[C@@H](O)[C@H](O)[C@H]3O)C[C@]12C [GS#01, ginsenoside Rg1]
IC50 (ppm), inhibitory effect of tyrosinase activity [1]: 23 ppm
IC50 (ppm), concentration required to reduce melanin production in melanocytes by half (Mel-Ab cell line): 37 ppm

Compound: CC(C)=CCC[C@](C)(O)[C@H]1CC[C@]2(C)[C@@H]1[C@H](O)C[C@@H]1[C@@]3(C)CC[C@H](O)C(C)(C)[C@@H]3[C@@H](O[C@@H]3O[C@H](CO)[C@@H](O)[C@H](O)[C@H]3O[C@@H]3O[C@@H](C)[C@H](O)[C@@H](O)[C@H]3O)C[C@]12C [GS#02, ginsenoside Rg2]
IC50 (ppm), inhibitory effect of tyrosinase activity [1]: 30 ppm
IC50 (ppm), concentration required to reduce melanin production in melanocytes by half (Mel-Ab cell line): 35 ppm

Compound: CC(C)=CCC[C@](C)(O[C@@H]1O[C@H](CO)[C@@H](O)[C@H](O)[C@H]1O)[C@H]1CC[C@]2(C)[C@@H]1[C@H](O)C[C@@H]1[C@@]3(C)CC[C@H](O)C(C)(C)[C@@H]3[C@@H](O[C@@H]3O[C@H](CO)[C@@H](O)[C@H](O)[C@H]3O[C@@H]3O[C@@H](C)[C@H](O)[C@@H](O)[C@H]3O)C[C@]12C [GS#03, ginsenoside Re]
IC50 (ppm), inhibitory effect of tyrosinase activity [1]: 27 ppm
IC50 (ppm), concentration required to reduce melanin production in melanocytes by half (Mel-Ab cell line): 39 ppm

Compound: CC(C)=CCC[C@](C)(O[C@@H]1O[C@H](CO)[C@@H](O)[C@H](O)[C@H]1O)[C@H]1CC[C@]2(C)[C@@H]1[C@H](O)C[C@@H]1[C@@]3(C)CC[C@H](O[C@@H]4O[C@H](CO)[C@@H](O)[C@H](O)[C@H]4O[C@@H]4O[C@H](CO)[C@@H](O)[C@H](O)[C@H]4O)C(C)(C)[C@@H]3CC[C@]12C [GS#04, ginsenoside Rd]
IC50 (ppm), inhibitory effect of tyrosinase activity [1]: 31 ppm
IC50 (ppm), concentration required to reduce melanin production in melanocytes by half (Mel-Ab cell line): 38 ppm

Compound: CC(C)=CCC[C@](C)(O[C@@H]1O[C@H](CO[C@@H]2O[C@H](CO)[C@@H](O)[C@H](O)[C@H]2O)[C@@H](O)[C@H](O)[C@H]1O)[C@H]1CC[C@]2(C)[C@@H]1[C@H](O)C[C@@H]1[C@@]3(C)CC[C@H](O[C@@H]4O[C@H](CO)[C@@H](O)[C@H](O)[C@H]4O[C@@H]4O[C@H](CO)[C@@H](O)[C@H](O)[C@H]4O)C(C)(C)[C@@H]3CC[C@]12C [GS#05, ginsenoside Rb1]
IC50 (ppm), inhibitory effect of tyrosinase activity [1]: 47 ppm
IC50 (ppm), concentration required to reduce melanin production in melanocytes by half (Mel-Ab cell line): 57 ppm

Compound: CC(C)=CCC[C@](C)(O[C@@H]1O[C@H](CO[C@@H]2OC[C@H](O)[C@H](O)[C@H]2O)[C@@H](O)[C@H](O)[C@H]1O)[C@H]1CC[C@]2(C)[C@@H]1[C@H](O)C[C@@H]1[C@@]3(C)CC[C@H](O[C@@H]4O[C@H](CO)[C@@H](O)[C@H](O)[C@H]4O[C@@H]4O[C@H](CO)[C@@H](O)[C@H](O)[C@H]4O)C(C)(C)[C@@H]3CC[C@]12C [GS#06, ginsenoside Rb2]
IC50 (ppm), inhibitory effect of tyrosinase activity [1]: 53 ppm
IC50 (ppm), concentration required to reduce melanin production in melanocytes by half (Mel-Ab cell line): 54 ppm

IC50 (ppm), concentration required to reduce melanin production in melanocytes by half (Mel-Ab cell line): 39 ppm
Compound: O=c1cc(CO)occ1O [Kojic acid, kojic acid]
